{
  "source": "patent US7348017B2",
  "about": "“Dithiazole compounds, matrix metalloprotease inhibitors and external preparations for the skin” (Shiseido Co., Ltd., priority 2001, dated 2008)",
  "data": [
    {"molecular_target": "T1, MMP-9 (crude enzyme solution derived from a mouse skin) (Mus musculus, UniProt P41245)", "T1 construct": "crude enzyme solution derived from a mouse skin; from tissue; host or cells: mouse skin", "T1 sequence (P41245 108-730)": "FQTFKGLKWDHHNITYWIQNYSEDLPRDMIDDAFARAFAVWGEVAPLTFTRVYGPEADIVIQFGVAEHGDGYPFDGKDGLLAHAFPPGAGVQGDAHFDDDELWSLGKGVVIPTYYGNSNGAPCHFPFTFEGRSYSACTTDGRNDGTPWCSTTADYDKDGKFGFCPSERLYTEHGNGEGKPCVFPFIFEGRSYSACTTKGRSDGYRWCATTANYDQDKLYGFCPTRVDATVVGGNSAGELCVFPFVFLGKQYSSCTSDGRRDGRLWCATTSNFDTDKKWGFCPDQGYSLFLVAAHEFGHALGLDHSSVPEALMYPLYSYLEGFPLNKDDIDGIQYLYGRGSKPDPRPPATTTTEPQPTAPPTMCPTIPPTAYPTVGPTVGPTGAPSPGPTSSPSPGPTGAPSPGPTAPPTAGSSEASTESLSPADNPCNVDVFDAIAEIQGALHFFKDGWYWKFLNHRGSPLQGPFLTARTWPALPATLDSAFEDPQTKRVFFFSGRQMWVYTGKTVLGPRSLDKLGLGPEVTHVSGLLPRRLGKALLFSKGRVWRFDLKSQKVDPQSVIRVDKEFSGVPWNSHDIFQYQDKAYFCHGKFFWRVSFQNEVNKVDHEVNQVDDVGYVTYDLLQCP", "experiment": "Gelatinase group MMPs inhibition test (gelatin zymography)", "type": "biochemical", "parameters": "key: ⊚: The band disappeared.; ◯: The band was slightly confirmed.; Δ: The band became narrower than control.; ×: Unchanged", "settings": "sample solution 100 μM; gel incubated overnight; size of MMP-9 band compared with control solution", "procedure": "A test material was dissolved in dimethyl sulfoxide (DMSO) to the concentration of 10 mM, to prepare a stock solution. The stock solution was diluted with a measuring buffer (0.05M tris at pH 7.5 containing 0.2M NaCl and 5 mM CaCl2) to adjust the concentration to 100 μM, which was used as a sample solution. As a control solution, a solution containing no test material was similarly prepared.\n(b) Gelatinase Group MMPs Inhibition Test\nAs a gelatinase group enzyme, MMP-9 (crude enzyme solution derived from a mouse skin) was used. The test was performed according to a gelatin zymography method (“Bio-antioxidant provitamin C”, Nobuhiko Miwa ed., p.76, 1999, Fragrance Journal, Tokyo).\nThat is, a gel containing gelatin in which a predetermined amount of the crude enzyme solution had been subjected to electrophoresis in advance, was incubated overnight with a sample solution or a control solution. After the gel was stained, the appearing band corresponding to MMP-9 was evaluated by a decrease when its size compared with that of a band of control solution. Evaluation criteria was as follows: • ⊚: The band disappeared. • ◯: The band was slightly confirmed. • Δ: The band became narrower than control. • ×: Unchanged.", "values": [
      {"smiles": "O=C(Cc1cccc(OCc2ccc(F)cc2)c1)Nc1nc(=S)ss1", "note": "[Compound 8, 2-{3-[(4-Fluorobenzyl)oxy]phenyl}-N-(3-thioxo-3H-1,2,4-dithiazol-5-yl)acetoamide]", "MMPs Inhibition": "◯"},
      {"smiles": "O=C(Cc1ccc(OCc2ccc(F)cc2)cc1)Nc1nc(=S)ss1", "note": "[Compound 5, 2-{4-[(4-Fluorobenzyl)oxy]phenyl}-N-(3-thioxo-3H-1,2,4-dithiazol-5-yl)acetoamide]", "MMPs Inhibition": "◯"},
      {"smiles": "CC(C)C(C(=O)Nc1nc(=S)ss1)c1ccc(OCc2ccc(F)cc2)cc1", "note": "(stereo not shown) [Compound 12, 2-{4-[(4-Fluorobenzyl)oxy]phenyl}-3-methyl-N-(3-thioxo-3H-1,2,4-dithiazol-5-yl)butanamide]", "MMPs Inhibition": "⊚"},
      {"smiles": "O=C(Cc1ccccc1OCc1ccc(F)cc1)Nc1nc(=S)ss1", "note": "[Compound 7, 2-{2-[(4-Fluorobenzyl)oxy]phenyl}-N-(3-thioxo-3H-1,2,4-dithiazol-5-yl)acetoamide]", "MMPs Inhibition": "◯"},
      {"smiles": "CC(C)=CCC/C(C)=C/COc1ccc(CC(=O)Nc2nc(=S)ss2)cc1", "note": "[Compound 2, 2-{4-[(3,7-Dimethyl-2,6-octadienyl)oxy]phenyl}-N-(3-thioxo-3H-1,2,4-dithiazol-5-yl)acetoamide]", "MMPs Inhibition": "◯"},
      {"smiles": "O=C(Cc1cc(OCc2ccc(F)cc2)cc(OCc2ccc(F)cc2)c1)Nc1nc(=S)ss1", "note": "[Compound 9, 2-{3,5-Bis[(4-fluorobenzyl)oxy]phenyl}-N-(3-thioxo-3H-1,2,4-dithiazol-5-yl)acetoamide]", "MMPs Inhibition": "◯"},
      {"smiles": "COc1ccc(S(=O)(=O)N(CC(=O)Nc2nc(=S)ss2)Cc2ccccc2)cc1", "note": "[Compound 1, 2-{Benzyl[(4-methoxyphenyl)sulfonyl]amino}-N-(3-thioxo-3H-1,2,4-dithiazol-5-yl) acetoamide]", "MMPs Inhibition": "◯"}
    ]}
  ]
}
